What all share (format): cell-based
The target of one assay is T1, TRPV4 (Homo sapiens, UniProt Q9HBA0).
T1 construct: expressed in transfected cells; host or cells: HEK293
The assay can be described thus: Calcium fluorescence signal, HEK293 cells overexpressing TRPV4. Conditions: 10 μM. On the procedure: (§1) Figure S3. Specificity of malathion for TRPA1 channels. (A-F) Time course of the fluorescence signal induced by malathion (Mala, 10 μM) and the indicated positive agonists (10 μM) in HEK293 cells overexpressing TRPV1 (A), TRPV3 (B), TRPV4 (C), TRPM8 (D), TRPC4 (E) and TRPC5 (F) channels. The fluorescence signals are scaled as F/F0. EC indicates external solution. […]
(§2) cells for each tested TRP channel. All bars are presented as the mean ± SEM. […]

The test system of the next assay is mouse DRG neurons. Description: Single-cell calcium imaging (Fura-2/AM) of isolated DRG neurons. How it is done: DRG neurons were isolated from young C57 BL/6 mice (4–5 weeks). The sections of thoracic and lumbar DRG neurons were rapidly isolated in calcium and magnesium-free PBS with low temperature conditions (ice-bath environment). The isolated tissues were cut into pieces with scissor and incubated for 30 min with 0.1% collagenase and 0.025% trypsin which were diluted by DMEM-F12 at 37 °C. After digestion, neurons were gently dissociated using Pasteur pipettes and then plated onto poly-D-lysine pre-coated glass cover slips. DRG neurons were cultured for 24 h before use.
Calcium influx signals were monitored using the ratio metric fluorescent indicator dye Fura-2/AM at room temperature (23–25 °C). Cells were incubated with 2 μM Fura-2/AM, which was generated by diluting the stock solution with normal external solution, for 30 min at 37 °C. […] The maximum excitation wave length of Fura-2/AM was changed to 340 nm from 380 nm when combined with calcium ions. Fura-2/AM was excited at 340 and 380 nm with a rapid switching monochromator obtained from TILL Photonics, and the mean fluorescence intensity ratios (F340/F380) reflected real-time changes in the concentration of intracellular free calcium ions. The external solution used in the DRG whole-cell patch-clamp recordings was also used for calcium imaging. Solutions were switched using a gravity-fed continuous focal perfusion system.

The next assay deals with T2, TRPV1 (Homo sapiens, UniProt Q8NER1).
T2 construct: expressed in transfected cells; host or cells: HEK293
The assay can be described thus: Calcium fluorescence signal, HEK293 cells overexpressing TRPV1. The conditions noted are these: 10 μM. How it is done: as §1, §2

In a further assay the target is T3, TRPC4 (Homo sapiens, UniProt Q9UBN4).
T3 construct: expressed in transfected cells; host or cells: HEK293
T3 sequence (Q9UBN4 1-977): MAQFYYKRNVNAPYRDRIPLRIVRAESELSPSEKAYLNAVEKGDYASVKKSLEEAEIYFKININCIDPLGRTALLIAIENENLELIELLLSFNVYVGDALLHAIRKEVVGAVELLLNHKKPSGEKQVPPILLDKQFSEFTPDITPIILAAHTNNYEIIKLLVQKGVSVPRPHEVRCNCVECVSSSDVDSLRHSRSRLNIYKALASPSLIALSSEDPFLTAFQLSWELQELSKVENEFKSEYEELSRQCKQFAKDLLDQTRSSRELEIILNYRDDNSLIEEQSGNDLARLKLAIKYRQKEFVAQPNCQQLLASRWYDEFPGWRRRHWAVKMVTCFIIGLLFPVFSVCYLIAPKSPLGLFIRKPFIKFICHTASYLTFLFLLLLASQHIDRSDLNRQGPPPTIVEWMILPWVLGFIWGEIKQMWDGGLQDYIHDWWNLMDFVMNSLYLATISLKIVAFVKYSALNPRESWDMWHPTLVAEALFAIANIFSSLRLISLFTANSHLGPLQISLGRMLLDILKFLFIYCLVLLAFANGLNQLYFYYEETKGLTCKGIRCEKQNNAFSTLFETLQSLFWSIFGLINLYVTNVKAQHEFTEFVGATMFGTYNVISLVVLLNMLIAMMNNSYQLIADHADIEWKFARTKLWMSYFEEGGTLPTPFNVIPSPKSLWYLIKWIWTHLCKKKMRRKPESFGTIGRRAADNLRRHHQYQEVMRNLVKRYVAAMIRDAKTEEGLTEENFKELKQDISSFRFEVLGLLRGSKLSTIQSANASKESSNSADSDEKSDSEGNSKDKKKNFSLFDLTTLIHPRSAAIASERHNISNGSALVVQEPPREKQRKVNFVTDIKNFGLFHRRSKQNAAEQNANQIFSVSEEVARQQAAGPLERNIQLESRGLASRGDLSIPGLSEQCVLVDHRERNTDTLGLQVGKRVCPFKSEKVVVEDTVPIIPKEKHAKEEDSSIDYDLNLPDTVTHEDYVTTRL
Description: Calcium fluorescence signal, HEK293 cells overexpressing TRPC4. Conditions: 10 μM. How it is done: as §1, §2

In another assay the target is T4, TRPC5 (Homo sapiens, UniProt Q9UL62).
T4 construct: expressed in transfected cells; host or cells: HEK293
T4 sequence (Q9UL62 1-973): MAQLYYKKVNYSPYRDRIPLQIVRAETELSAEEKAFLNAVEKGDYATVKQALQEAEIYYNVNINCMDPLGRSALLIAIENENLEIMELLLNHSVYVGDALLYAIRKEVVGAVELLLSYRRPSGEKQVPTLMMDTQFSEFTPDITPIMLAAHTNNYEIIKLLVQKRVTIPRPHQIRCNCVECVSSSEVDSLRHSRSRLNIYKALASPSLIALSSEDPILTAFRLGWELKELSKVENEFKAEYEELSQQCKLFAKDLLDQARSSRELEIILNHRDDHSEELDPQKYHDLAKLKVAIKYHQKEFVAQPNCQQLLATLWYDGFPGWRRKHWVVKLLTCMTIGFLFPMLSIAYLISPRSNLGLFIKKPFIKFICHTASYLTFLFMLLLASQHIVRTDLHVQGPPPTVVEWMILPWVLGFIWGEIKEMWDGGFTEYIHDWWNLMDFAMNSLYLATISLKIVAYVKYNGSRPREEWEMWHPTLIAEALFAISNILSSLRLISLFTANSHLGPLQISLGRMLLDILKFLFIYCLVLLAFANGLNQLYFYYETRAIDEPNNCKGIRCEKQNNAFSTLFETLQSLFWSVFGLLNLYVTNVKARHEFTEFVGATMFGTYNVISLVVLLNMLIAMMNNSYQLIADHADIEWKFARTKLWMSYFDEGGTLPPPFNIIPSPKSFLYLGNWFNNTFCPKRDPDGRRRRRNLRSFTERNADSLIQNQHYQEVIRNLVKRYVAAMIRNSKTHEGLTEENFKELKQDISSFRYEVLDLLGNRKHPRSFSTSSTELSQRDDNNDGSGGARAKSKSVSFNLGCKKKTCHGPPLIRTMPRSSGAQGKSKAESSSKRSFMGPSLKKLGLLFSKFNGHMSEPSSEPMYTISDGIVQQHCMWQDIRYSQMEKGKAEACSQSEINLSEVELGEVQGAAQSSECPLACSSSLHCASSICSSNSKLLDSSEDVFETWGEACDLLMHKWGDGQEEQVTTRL
Description: Calcium fluorescence signal, HEK293 cells overexpressing TRPC5. The conditions noted are these: 10 μM. On the procedure:
as §1, §2

The values that follow come from publication PMC5537602, “TRPA1 channel mediates organophosphate-induced delayed neuropathy” (Cell Discovery, 2017).

T2 sequence (Q8NER1 whole entry, species assumed): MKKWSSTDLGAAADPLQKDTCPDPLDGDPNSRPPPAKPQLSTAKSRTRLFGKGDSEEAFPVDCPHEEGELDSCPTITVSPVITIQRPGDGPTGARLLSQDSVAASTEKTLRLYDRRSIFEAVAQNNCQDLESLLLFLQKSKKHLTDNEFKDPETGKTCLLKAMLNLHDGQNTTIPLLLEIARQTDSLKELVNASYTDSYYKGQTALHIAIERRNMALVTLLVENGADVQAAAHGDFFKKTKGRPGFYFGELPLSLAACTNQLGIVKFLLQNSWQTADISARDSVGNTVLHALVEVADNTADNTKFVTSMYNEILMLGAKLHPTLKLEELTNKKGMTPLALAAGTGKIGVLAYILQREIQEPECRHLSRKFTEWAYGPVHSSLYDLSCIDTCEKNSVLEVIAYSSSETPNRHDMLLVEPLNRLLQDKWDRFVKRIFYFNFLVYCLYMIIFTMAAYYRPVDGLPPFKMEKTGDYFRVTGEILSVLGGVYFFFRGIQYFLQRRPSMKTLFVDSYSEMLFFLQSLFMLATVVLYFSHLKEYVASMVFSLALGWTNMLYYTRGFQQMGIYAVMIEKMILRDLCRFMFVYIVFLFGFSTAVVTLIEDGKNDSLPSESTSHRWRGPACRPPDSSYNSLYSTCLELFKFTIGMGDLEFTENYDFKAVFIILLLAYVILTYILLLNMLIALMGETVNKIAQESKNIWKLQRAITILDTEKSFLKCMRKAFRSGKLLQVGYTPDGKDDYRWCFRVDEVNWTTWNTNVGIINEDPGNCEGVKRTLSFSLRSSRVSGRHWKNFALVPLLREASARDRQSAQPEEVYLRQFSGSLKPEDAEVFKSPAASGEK
T1 sequence (Q9HBA0 whole entry, species assumed): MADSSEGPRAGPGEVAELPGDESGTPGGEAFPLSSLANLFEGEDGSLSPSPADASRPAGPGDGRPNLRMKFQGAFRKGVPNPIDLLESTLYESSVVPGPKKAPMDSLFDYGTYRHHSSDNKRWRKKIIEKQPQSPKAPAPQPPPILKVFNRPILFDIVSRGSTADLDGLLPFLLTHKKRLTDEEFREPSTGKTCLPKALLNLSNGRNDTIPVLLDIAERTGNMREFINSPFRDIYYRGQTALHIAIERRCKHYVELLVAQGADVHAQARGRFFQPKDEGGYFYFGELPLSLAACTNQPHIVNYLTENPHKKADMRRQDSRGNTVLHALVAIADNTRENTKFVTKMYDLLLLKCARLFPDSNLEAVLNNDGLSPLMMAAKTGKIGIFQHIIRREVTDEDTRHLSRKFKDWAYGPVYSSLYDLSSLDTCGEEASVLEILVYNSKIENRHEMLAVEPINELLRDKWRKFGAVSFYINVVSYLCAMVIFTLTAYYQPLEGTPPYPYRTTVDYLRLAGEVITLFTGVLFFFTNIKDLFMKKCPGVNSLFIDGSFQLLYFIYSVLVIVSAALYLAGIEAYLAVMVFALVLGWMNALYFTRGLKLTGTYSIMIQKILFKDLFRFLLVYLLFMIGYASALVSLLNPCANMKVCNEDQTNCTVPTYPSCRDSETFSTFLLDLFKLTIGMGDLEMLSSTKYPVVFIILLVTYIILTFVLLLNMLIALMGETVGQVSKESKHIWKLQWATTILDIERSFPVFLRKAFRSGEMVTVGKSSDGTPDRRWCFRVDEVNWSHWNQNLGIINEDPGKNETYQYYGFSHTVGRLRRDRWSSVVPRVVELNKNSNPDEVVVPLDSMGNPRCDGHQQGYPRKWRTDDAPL

With `CCOC(=O)CC(SP(=S)(OC)OC)C(=O)OCC` (stereo not drawn) [malathion, S-[1,2-bis (ethoxycarbonyl)ethyl] O, O-dimethyl phosphorodithioate], at TRPV4, the “activation of TRPV4” value is “could not activate”. In addition, the “[Ca2+]i response of DRG neurons from Trpa1−/− mice” value in the assay on mouse DRG neurons (Trpa1−/− neurons) is reported as “thoroughly unresponsive”. The “neurons displaying a robust increase in [Ca2+]i” value in the assay on mouse DRG neurons (wild-type small-diameter neurons, sequential application of AITC and malathion, 197/451) is recorded as ~ 44%. Moreover, the “activation of TRPV1” value at TRPV1 is “could not activate”. For the same compound, the “activation of TRPC4” value on TRPC4 is “could not activate”. Besides, the “activation of TRPC5” value at TRPC5 is “could not activate”.
